From patent publication US6984400B2, “Method of treating restenosis using bisphosphonate nanoparticles” (Yissum Research Development Company of the Hebrew …, priority 1998, dated 2006)

How the values were obtained:
RAW 264 cells = assay: Growth/proliferation of RAW 264 cells in vitro; type: cell-based, murine; details: FIG. 6; 48 hours after treatment; proliferation in buffer = 100%
Experimental: The effect of ISA on the growth of RAW 264 cells was determined. RAW 264 cells, which are derived from the murine macrophage cell lines, were plated at 2×10^4 cells per well in 24-well plates and allowed to grow for approximately 24 hours in DMEM. The cells were then treated with various compositions of the ISA drug, specifically, free ISA, the ISA−Ca^+2 salt, and ISA encapsulated in a nanoparticle (“ISA NP”). As discussed supra, the ISA NP contains Ca^+2 to lower the solubility of the bisphosphonate and increase its entrapment efficiency. For comparison purposes, the RAW 264 cells were also treated with blank NP, i.e., nanoparticles with no drug embedded therein. The cells were then analyzed 48 hours after treatment. Analysis included cell counting by Coulter counter and cell viability by tryphan blue exclusion assay.
The effect of ISA compositions on the growth of RAW 264 cells in vitro is illustrated in FIG. 6. The cell proliferation in buffer only was termed as 100%. The data represented is the mean with a ±SD (6≦N≦27).
The following formulations were evaluated: Ca^+2-ISA salt, Ca^+2-ISA salt+PVA, and Ca^+2-ISA adsorbed on the surface of a blank NP. The cell proliferation in the buffer only was termed as 100%. N.B., a lower column represents higher potency.

[1] = test system: neointimal formation in balloon-injured rat carotid artery; assay: Rat carotid catheter (balloon) injury model of restenosis; type: in vivo; details: Example 2; 1.5 and 15 mg/kg day -1 and/or day +6; 14 days post injury; FIG. 4
Experimental: Animals were obtained and housed in the animal facilities of the Faculty of Medicine, The Hebrew University of Jerusalem, conforming to the standards for care and use of laboratory animals of the Hebrew University of Jerusalem. Male rats of Sabra strain weighing 350-420 g were used. The animals were fed standard laboratory chow and tap water ad libitum. All in vivo experiments were conducted under general anaesthesia achieved with 80 mg/kg ketamine and 5 mg/kg xylazine administered IP.
The distal left common and external carotid arteries were exposed through a midline incision in the neck. […]
The slides were examined microscopically by an investigator blinded to the type of the experimental group. Six to eight sections in each slide were evaluated by computerized morphometric analysis and the averaged section data were further used as a representative of a whole slide for comparisons between groups. The residual lumen, the area bounded by the internal elastic lamina (original lumen), and the area circumscribed by the external elastic lamina (“total arterial area”) were measured directly. The degree of neointimal thickening was expressed as the ratio between the area of the neointimal and the original lumen (% stenosis), and as the ratio between the neointimal area to the area of the media (N/M). […]

SMILES | growth of RAW 264 cells (RAW 264 cells) | mean neointimal formation [1]
Nc1nccc[n+]1CC(P(=O)([O-])O)P(=O)(O)O (centres unmarked) [free ISA, 2-(2-aminopyrimidinio) ethylidene-1,1-bisphosphonic acid betaine] | only a minor effect | 
O=P(O)(O)C(Cl)(Cl)P(=O)(O)O [free clodronate in solution, (dichloromethylene) diphosphonic acid] |  | marked neointimal formation
